Each compound was assayed against T1, CFTR (Homo sapiens, UniProt P13569) (assay: T84 assay (FLIPR membrane potential dye, forskolin/IBMX-stimulated CFTR channel activity)). Conditions: imidazole and triazole-containing compounds (Tables 13, 14, 14′), read-out: IC50 (μM) (T84 assay).
T1 construct: endogenous in cells; host or cells: T84 human colonic cells (ECACC)
Type: cell-based
How it was run: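 Fluorescence from a membrane potential dye in T84 monolayers (HBSS with 10 mM Hepes) is followed each second for 150 s. Cells are exposed to test compound during the 45 min dye loading, then challenged with forskolin (10 μM) and IBMX (100 μM) to open CFTR. Inhibitors suppress the depolarization-driven fluorescence increase.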

T1 sequence (P13569 whole entry): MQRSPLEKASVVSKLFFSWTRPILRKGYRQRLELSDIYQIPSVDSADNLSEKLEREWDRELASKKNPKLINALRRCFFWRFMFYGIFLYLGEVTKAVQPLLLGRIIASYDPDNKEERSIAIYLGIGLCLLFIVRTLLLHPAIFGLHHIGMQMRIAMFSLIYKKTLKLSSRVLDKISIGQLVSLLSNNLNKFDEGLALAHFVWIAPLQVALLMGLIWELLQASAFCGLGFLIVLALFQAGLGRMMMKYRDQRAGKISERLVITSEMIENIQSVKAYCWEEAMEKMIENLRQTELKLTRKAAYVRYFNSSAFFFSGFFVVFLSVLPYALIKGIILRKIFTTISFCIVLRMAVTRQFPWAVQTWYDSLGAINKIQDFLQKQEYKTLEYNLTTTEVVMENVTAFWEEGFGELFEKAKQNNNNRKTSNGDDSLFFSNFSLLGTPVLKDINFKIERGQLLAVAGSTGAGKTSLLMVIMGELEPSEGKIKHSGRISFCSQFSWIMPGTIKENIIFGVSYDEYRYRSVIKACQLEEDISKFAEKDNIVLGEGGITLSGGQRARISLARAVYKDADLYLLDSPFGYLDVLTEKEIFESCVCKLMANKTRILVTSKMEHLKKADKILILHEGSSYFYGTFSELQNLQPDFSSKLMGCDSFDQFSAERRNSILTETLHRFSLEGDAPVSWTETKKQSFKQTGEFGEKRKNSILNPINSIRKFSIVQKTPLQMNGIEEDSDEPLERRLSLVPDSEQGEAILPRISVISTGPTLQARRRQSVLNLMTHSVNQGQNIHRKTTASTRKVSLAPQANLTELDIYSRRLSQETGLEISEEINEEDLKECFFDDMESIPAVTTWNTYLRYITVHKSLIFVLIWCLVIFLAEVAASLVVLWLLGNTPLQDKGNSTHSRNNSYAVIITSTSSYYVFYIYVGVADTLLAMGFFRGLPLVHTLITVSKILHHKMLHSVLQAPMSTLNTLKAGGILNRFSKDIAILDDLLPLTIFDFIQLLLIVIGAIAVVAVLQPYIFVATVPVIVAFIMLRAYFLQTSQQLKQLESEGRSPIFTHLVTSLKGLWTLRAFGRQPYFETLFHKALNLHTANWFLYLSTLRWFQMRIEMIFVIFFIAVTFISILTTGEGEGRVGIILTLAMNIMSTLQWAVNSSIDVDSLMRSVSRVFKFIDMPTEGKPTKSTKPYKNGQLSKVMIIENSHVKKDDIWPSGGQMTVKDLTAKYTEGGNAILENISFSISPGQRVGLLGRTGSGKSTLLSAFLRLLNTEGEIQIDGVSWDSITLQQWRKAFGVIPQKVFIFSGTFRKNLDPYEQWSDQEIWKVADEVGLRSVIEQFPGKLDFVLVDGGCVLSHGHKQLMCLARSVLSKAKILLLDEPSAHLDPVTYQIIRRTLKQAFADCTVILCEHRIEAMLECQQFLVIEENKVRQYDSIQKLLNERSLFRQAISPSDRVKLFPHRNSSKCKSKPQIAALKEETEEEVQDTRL

SMILES	IC50
O=C(NCc1cccc(-c2ccccc2)c1)c1ncn(-c2cc(Cl)c(O)c(Cl)c2)n1 [25i, N-(biphenyl-3-ylmethyl)-1-(3,5-dichloro-4-hydroxyphenyl)-1H-1,2,4-triazole-3-carboxamide]	3.7 µM
CN(C)c1cccc(CNC(=O)c2ncn(-c3cc(Cl)c(O)c(Cl)c3)n2)c1 [26i, 1-(3,5-dichloro-4-hydroxyphenyl)-N-(3-(dimethylamino)benzyl)-1H-1,2,4-triazole-3-carboxamide]	3.92 µM
O=C(NCc1cc(Cl)ccc1F)c1ncn(-c2cc(Cl)c(O)c(Cl)c2)n1 [27i, N-(5-chloro-2-fluorobenzyl)-1-(3,5-dichloro-4-hydroxyphenyl)-1H-1,2,4-triazole-3-carboxamide]	24.4 µM
CC(C)Oc1ccc(CNC(=O)c2ncn(-c3cc(Cl)c(O)c(Cl)c3)n2)cc1 [28i, 1-(3,5-dichloro-4-hydroxyphenyl)-N-(4-isopropoxybenzyl)-1H-1,2,4-triazole-3-carboxamide]	16.8 µM
O=C(NCc1ccc(F)c(C(F)(F)F)c1)c1ncn(-c2cc(Cl)c(O)c(Cl)c2)n1 [29i, 1-(3,5-dichloro-4-hydroxyphenyl)-N-(4-fluoro-3-(trifluoromethyl)benzyl)-1H-1,2,4-triazole-3-carboxamide]	7.52 µM
O=C(NCc1ccccc1Cl)c1ncn(-c2cc(Cl)c(O)c(Cl)c2)n1 [30i, N-(2-chlorobenzyl)-1-(3,5-dichloro-4-hydroxyphenyl)-1H-1,2,4-triazole-3-carboxamide]	27.8 µM
CC(NC(=O)c1ncn(-c2cc(Cl)c(O)c(Cl)c2)n1)c1ccc(Br)cc1 (centres unmarked) [32i, N-(1-(4-bromophenyl)ethyl)-1-(3,5-dichloro-4-hydroxyphenyl)-1H-1,2,4-triazole-3-carboxamide]	10.3 µM
O=C(NCc1ccccc1C(F)(F)F)c1ncn(-c2cc(Cl)c(O)c(Cl)c2)n1 [35i, 1-(3,5-dichloro-4-hydroxyphenyl)-N-(2-(trifluoromethyl)benzyl)-1H-1,2,4-triazole-3-carboxamide]	23.8 µM
O=C(NCc1cccc(N2CCCCC2)c1)c1ncn(-c2cc(Cl)c(O)c(Cl)c2)n1 [38i, 1-(3,5-dichloro-4-hydroxyphenyl)-N-(3-(piperidin-1-yl)benzyl)-1H-1,2,4-triazole-3-carboxamide]	5.61 µM
O=C(NCc1ccc(-c2ccc(C(F)(F)F)cn2)cc1)c1ncn(-c2cc(Cl)c(O)c(Cl)c2)n1 [39i, 1-(3,5-dichloro-4-hydroxyphenyl)-N-(4-(5-(trifluoromethyl)pyridin-2-yl)benzyl)-1H-1,2,4-triazole-3-carboxamide]	2.51 µM
O=C(NCc1ccccc1OC(F)F)c1ncn(-c2cc(Cl)c(O)c(Cl)c2)n1 [41i, 1-(3,5-dichloro-4-hydroxyphenyl)-N-(2-(difluoromethoxy)benzyl)-1H-1,2,4-triazole-3-carboxamide]	22.4 µM

Same assay, conditions: oxadiazole-containing compounds (a series), average of at least 2 runs unless annotated n = 1, read-out: IC50

SMILES	IC50
O=C(NCc1cccc(F)c1)c1nc(-c2cc(Br)c(O)c(Br)c2)no1 [23a, 3-(3,5-dibromo-4-hydroxyphenyl)-N-(3-fluorobenzyl)-1,2,4-oxadiazole-5-carboxamide]	12.7 µM
O=C(Nc1cccc(OC(F)(F)F)c1)c1nc(-c2cc(Br)c(O)c(Br)c2)no1 [24a, 3-(3,5-Dibromo-4-hydroxyphenyl)-N-(3-(trifluoromethoxy)phenyl)-1,2,4-oxadiazole-5-carboxamide]	13.1 µM
CC(C)(C)c1ccc(N2CCN(C(=O)c3nc(-c4cc(Br)c(O)c(Br)c4)no3)CC2)cc1 [25a, (4-(4-tert-butylphenyl)piperazin-1-yl)(3-(3,5-dibromo-4-hydroxyphenyl)-1,2,4-oxadiazol-5-y1)methanone]	10.9 µM
COc1ccccc1N1CCN(C(=O)c2nc(-c3cc(Br)c(O)c(Br)c3)no2)CC1 [26a, (3-(3,5-dibromo-4-hydroxyphenyl)-1,2,4-oxadiazol-5-yl)(4-(2-methoxyphenyl)piperazin-1-yl)methanone]	14.5 µM
O=C(NCc1cccc(C(F)(F)F)c1)c1nc(-c2cc(Br)c(O)c(Br)c2)no1 [27a, 3-(3,5-dibromo-4-hydroxyphenyl)-N-(3-(trifluoromethyl)benzyl)-1,2,4-oxadiazole-5-carboxamide]	14.6 µM
CN(Cc1ccccc1)C(=O)c1nc(-c2cc(Br)c(O)c(Br)c2)no1 [28a, N-benzyl-3-(3,5-dibromo-4-hydroxyphenyl)-N-methyl-1,2,4-oxadiazole-5-carboxamide]	15.3 µM
O=C(NCc1ccc(OC(F)(F)F)cc1)c1nc(-c2cc(Br)c(O)c(Br)c2)no1 [29a, 3-(3,5-Dibromo-4-hydroxyphenyl)-N-(4-(trifluoromethoxy)benzyl)-1,2,4-oxadiazole-5-carboxamide]	13.8 µM
O=C(NCc1ccc(Cl)c(C(F)(F)F)c1)c1nc(-c2cc(Br)c(O)c(Br)c2)no1 [30a, N-(4-chloro-3-(trifluoromethyl)benzyl)-3-(3,5-dibromo-4-hydroxyphenyl)-1,2,4-oxadiazole-5-carboxamide]	16.2 µM
O=C(c1nc(-c2cc(Br)c(O)c(Br)c2)no1)N1CCN(c2ccc(F)cc2F)CC1 [31a]	17.1 µM
O=C(c1nc(-c2cc(Br)c(O)c(Br)c2)no1)N1CCN(c2cccc(F)c2)CC1 [32a, (3-(3,5-dibromo-4-hydroxyphenyl)-1,2,4-oxadiazol-5-yl)(4-(3-fluorophenyl)piperazin-1-yl)methanone]	17.2 µM
O=C(NCc1ccccc1)c1nc(-c2cc(Br)c(O)c(Br)c2)no1 [33a, N-benzyl-3-(3,5-dibromo-4-hydroxyphenyl)-1,2,4-oxadiazole-5-carboxamide]	17.8 µM
O=C(Nc1ccc(Oc2ccc(C(F)(F)F)cc2)cc1)c1nc(-c2cc(Br)c(O)c(Br)c2)no1 [34a, 3-(3,5-dibromo-4-hydroxyphenyl)-N-(4-(4-(trifluoromethyl)phenoxy)phenyl)-1,2,4-oxadiazole-5-carboxamide]	18.3 µM
O=C(NCc1ccccc1F)c1nc(-c2cc(Br)c(O)c(Br)c2)no1 [35a, 3-(3,5-dibromo-4-hydroxyphenyl)-N-(2-fluorobenzyl)-1,2,4-oxadiazole-5-carboxamide]	19.2 µM
O=C(NCc1ccccc1C(F)(F)F)c1nc(-c2cc(Br)c(O)c(Br)c2)no1 [36a, 3-(3,5-dibromo-4-hydroxyphenyl)-N-(2-(trifluoromethyl)benzyl)-1,2,4-oxadiazole-5-carboxamide]	21.4 µM
O=C(NCc1ccc(C(F)(F)F)cc1)c1nc(-c2cc(Br)c(O)c(Br)c2)no1 [37a, 3-(3,5-dibromo-4-hydroxyphenyl)-N-(4-(trifluoromethyl)benzyl)-1,2,4-oxadiazole-5-carboxamide]	23 µM
CN(Cc1cccc(OC(F)(F)F)c1)C(=O)c1nc(-c2cc(Br)c(O)c(Br)c2)no1 [38a, 3-(3,5-dibromo-4-hydroxyphenyl)-N-methyl-N-(3-(trifluoromethoxy)benzyl)-1,2,4-oxadiazole-5-carboxamide]	2.52 µM
O=C(O)COc1c(Br)cc(-c2noc(C(=O)N3CCC(Cc4ccccc4)CC3)n2)cc1Br [39a, 2-(4-(5-(4-benzylpiperidine-1-carbonyl)-1,2,4-oxadiazol-3-yl)-2,6-dibromophenoxy) acetic acid]	26.7 µM
O=C(NCc1ccc(Cl)cc1)c1nc(-c2cc(Br)c(O)c(Br)c2)no1 [40a, N-(4-chlorobenzyl)-3-(3,5-dibromo-4-hydroxyphenyl)-1,2,4-oxadiazole-5-carboxamide]	27.1 µM

— US20100144733A1, “Compounds, compositions and methods comprising heteroaromatic derivatives” (Institute for OneWorld Health, priority 2008, published 2010)
